{
  "source": "patent US11000033B2",
  "about": "“Ketone or oxime compound, and herbicide” (NISSAN CHEMICAL CORPORATION, priority 2014, dated 2021)",
  "type_in_all_cases": "in vivo",
  "key": {"[1]": {"test_system": "Echinochloa oryzacola Vasing.", "test": "Test Example 1: herbicidal activity, application before weed generation in submerged conditions (symbol A)", "conditions": "application herbicide amount 320 g/ha", "in_short": "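Weed control was rated three weeks after treatment on a 0–5 scale, from 5% or lower up to 90% or more. Pre-emergence water-surface application of diluted emulsion at a predetermined rate was made on the day of sowing, in flooded (4 cm water) pots containing rice seedlings, kept at 25–30 °C under glass.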"}, "[2]": {"test_system": "Echinochloa oryzacola Vasing.", "test": "Test Example 2: herbicidal activity, application during weed generation in submerged conditions (symbol A)", "conditions": "Table 23; application herbicide amount 320 g/ha; grade 0-5 by criteria of Test Example 1", "in_short": "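Alluvial soil in pots was flooded to a 4 cm water depth and sown with a mix of the three weed species, then grown in a greenhouse at 25° C. to 30° C. At the one- to two-leaf stage, an emulsifiable formulation diluted in water to a set dose was applied to the water surface. Effects were scored visually 3 weeks later.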"}, "[3]": {"test_system": "Echinochloa crus-galli var. crus-galli", "test": "Test Example 4: herbicidal effect by soil treatment (symbol H)", "conditions": "application herbicide amount 320 g/ha", "in_short": "(§1)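 Seeds were sown in sterilized diluvial soil, covered with about 1.5 cm of soil, and the soil surface was sprayed with a water-diluted emulsion of the compound at a predetermined rate. Plants grew in a greenhouse at 25° C. to 30° C.; effects were scored visually 3 weeks after application.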"}, "Avena fatua": {"test_system": "Avena fatua", "test": "Test Example 4: herbicidal effect by soil treatment (symbol I)", "conditions": "application herbicide amount 320 g/ha", "in_short": "as §1"}, "Alopecurus myosuroides": {"test_system": "Alopecurus myosuroides", "test": "Test Example 4: herbicidal effect by soil treatment (symbol J)", "conditions": "application herbicide amount 320 g/ha", "in_short": "as §1"}, "Lolium multiflorum Lam. [4]": {"test_system": "Lolium multiflorum Lam.", "test": "Test Example 4: herbicidal effect by soil treatment (symbol K)", "conditions": "application herbicide amount 320 g/ha", "in_short": "as §1"}, "Veronica persica [5]": {"test_system": "Veronica persica", "test": "Test Example 4: herbicidal effect by soil treatment (symbol R)", "conditions": "application herbicide amount 320 g/ha", "in_short": "as §1"}, "corn": {"test_system": "corn", "test": "Test Example 4: effect on crop by soil treatment (symbol c)", "conditions": "application herbicide amount 320 g/ha", "in_short": "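Crop seed is sown in spots together with several weed species in a box of sterilized diluvial soil. It is covered by about 1.5 cm of soil and kept in a greenhouse held between 25° C. and 30° C.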"}, "rapeseed": {"test_system": "rapeseed", "test": "Test Example 4: effect on crop by soil treatment (symbol g)", "conditions": "application herbicide amount 320 g/ha", "in_short": "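Sterilized diluvial soil, spot sowing, ~1.5 cm soil cover; greenhouse 25–30° C.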"}, "Setaria viridis": {"test_system": "Setaria viridis", "test": "Test Example 5: herbicidal effect by foliage application, plastic box (symbol G)", "conditions": "320 g/ha, 3 weeks after application", "in_short": "(§2)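 Emulsion formulation, diluted with water to the intended rate, was applied uniformly to leaves by small sprayer. Recipients were 14-day greenhouse-grown seedlings (25° C. to 30° C.). Assessment followed at 3 weeks.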"}, "Lolium multiflorum Lam. [6]": {"test_system": "Lolium multiflorum Lam.", "test": "Test Example 5: herbicidal effect by foliage application, plastic box (symbol K)", "conditions": "320 g/ha, 3 weeks after application", "in_short": "as §2"}, "Abutilon theophrasti": {"test_system": "Abutilon theophrasti", "test": "Test Example 5: herbicidal effect by foliage application, plastic box (symbol M)", "conditions": "320 g/ha, 3 weeks after application", "in_short": "as §2"}, "Amaranthus retroflexus": {"test_system": "Amaranthus retroflexus", "test": "Test Example 5: herbicidal effect by foliage application, plastic box (symbol N)", "conditions": "320 g/ha, 3 weeks after application", "in_short": "as §2"}, "Stellaria media": {"test_system": "Stellaria media", "test": "Test Example 5: herbicidal effect by foliage application, plastic box (symbol P)", "conditions": "320 g/ha, 3 weeks after application", "in_short": "as §2"}, "Galium spurium": {"test_system": "Galium spurium", "test": "Test Example 5: herbicidal effect by foliage application, plastic box (symbol Q)", "conditions": "320 g/ha, 3 weeks after application", "in_short": "as §2"}, "rice plant": {"test_system": "rice plant", "test": "Test Example 5: effect on crop by foliage application, plastic box (symbol b)", "conditions": "320 g/ha, 3 weeks after application", "in_short": "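Seeds were sown in spots in sterilized diluvial soil held in a plastic box 21 cm × 13 cm × 7 cm deep, covered with about 1.5 cm of soil, and grown in a greenhouse at 25° C. to 30° C.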"}, "Veronica persica [7]": {"test_system": "Veronica persica", "test": "Test Example 5: herbicidal effect by foliage application, plastic box (symbol R)", "conditions": "320 g/ha, 3 weeks after application", "in_short": "as §2"}},
  "data": [
    {"smiles": "CON=C(C)CC1CC(OC(=O)COc2cccc(C#N)c2)=C(c2c(C)cc(C)cc2C)C1=O", "note": "(centres unmarked) [1-074]", "values": [
      {"measurement": "Herbicidal effect grade, A: Echinochloa oryzacola Vasing.", "setting": "[1]", "value": "5 (Herbicidal ratio of 90% or more (almost completely withered))"},
      {"measurement": "Herbicidal effect grade, A: Echinochloa oryzacola Vasing.", "setting": "[2]", "value": "5 (Herbicidal ratio of 90% or more (almost completely withered))"},
      {"measurement": "H (Echinochloa crus-galli var. crus-galli) herbicidal effect grade", "setting": "[3]", "value": "5 (Herbicidal ratio of 90% or more (almost completely withered))"},
      {"measurement": "I (Avena fatua) herbicidal effect grade", "setting": "Avena fatua", "value": "4 (Herbicidal ratio of 70% or higher and lower than 90%)"},
      {"measurement": "J (Alopecurus myosuroides) herbicidal effect grade", "setting": "Alopecurus myosuroides", "value": "5 (Herbicidal ratio of 90% or more (almost completely withered))"},
      {"measurement": "K (Lolium multiflorum Lam.) herbicidal effect grade", "setting": "Lolium multiflorum Lam. [4]", "value": "5 (Herbicidal ratio of 90% or more (almost completely withered))"},
      {"measurement": "R (Veronica persica) herbicidal effect grade", "setting": "Veronica persica [5]", "value": "0 (Herbicidal ratio of 5% or lower (almost no effect))"},
      {"measurement": "c (corn) effect on crop grade", "setting": "corn", "value": "4 (Herbicidal ratio of 70% or higher and lower than 90%)"},
      {"measurement": "g (rapeseed) effect on crop grade", "setting": "rapeseed", "value": "4 (Herbicidal ratio of 70% or higher and lower than 90%)"},
      {"measurement": "G: Setaria viridis, herbicidal effect (criteria 0-5)", "setting": "Setaria viridis", "value": "5 (Herbicidal ratio of 90% or more (almost completely withered))"},
      {"measurement": "K: Lolium multiflorum Lam., herbicidal effect (criteria 0-5)", "setting": "Lolium multiflorum Lam. [6]", "value": "5 (Herbicidal ratio of 90% or more (almost completely withered))"},
      {"measurement": "M: Abutilon theophrasti, herbicidal effect (criteria 0-5)", "setting": "Abutilon theophrasti", "value": "3 (Herbicidal ratio of 40% or higher and lower than 70%)"},
      {"measurement": "N: Amaranthus retroflexus, herbicidal effect (criteria 0-5)", "setting": "Amaranthus retroflexus", "value": "0 (Herbicidal ratio of 5% or lower (almost no effect))"},
      {"measurement": "P: Stellaria media, herbicidal effect (criteria 0-5)", "setting": "Stellaria media", "value": "1 (Herbicidal ratio of 5% or higher and lower than 20%)"},
      {"measurement": "Q: Galium spurium, herbicidal effect (criteria 0-5)", "setting": "Galium spurium", "value": "1 (Herbicidal ratio of 5% or higher and lower than 20%)"},
      {"measurement": "b: directly sowed rice plant, effect on crop (criteria 0-5)", "setting": "rice plant", "value": "5 (Herbicidal ratio of 90% or more (almost completely withered))"}
    ]},
    {"smiles": "CC(CC1CC(O)=C(c2c(C)cc(Br)cc2C)C1=O)=NOCC(=O)N(C)C", "note": "(mixture of isomers) [9-029]", "values": [
      {"measurement": "Herbicidal effect grade, A: Echinochloa oryzacola Vasing.", "setting": "[2]", "value": "0 (Herbicidal ratio of 5% or lower (almost no effect))"},
      {"measurement": "Herbicidal effect grade, H: Echinochloa crus-galli var. crus-galli", "setting": "[3]", "value": "3 (Herbicidal ratio of 40% or higher and lower than 70%)"},
      {"measurement": "Herbicidal effect grade, I: Avena fatua", "setting": "Avena fatua", "value": "0 (Herbicidal ratio of 5% or lower (almost no effect))"},
      {"measurement": "Herbicidal effect grade, J: Alopecurus myosuroides", "setting": "Alopecurus myosuroides", "value": "3 (Herbicidal ratio of 40% or higher and lower than 70%)"},
      {"measurement": "Herbicidal effect grade, K: Lolium multiflorum Lam.", "setting": "Lolium multiflorum Lam. [4]", "value": "4 (Herbicidal ratio of 70% or higher and lower than 90%)"},
      {"measurement": "Herbicidal effect grade, R: Veronica persica", "setting": "Veronica persica [5]", "value": "0 (Herbicidal ratio of 5% or lower (almost no effect))"},
      {"measurement": "Effect on crop grade, c: corn", "setting": "corn", "value": "0 (Herbicidal ratio of 5% or lower (almost no effect))"},
      {"measurement": "Effect on crop grade, g: rapeseed", "setting": "rapeseed", "value": "0 (Herbicidal ratio of 5% or lower (almost no effect))"},
      {"measurement": "G: Setaria viridis, herbicidal effect grade", "setting": "Setaria viridis", "value": "3 (Herbicidal ratio of 40% or higher and lower than 70%)"},
      {"measurement": "K: Lolium multiflorum Lam., herbicidal effect grade", "setting": "Lolium multiflorum Lam. [6]", "value": "5 (Herbicidal ratio of 90% or more (almost completely withered))"},
      {"measurement": "M: Abutilon theophrasti, herbicidal effect grade", "setting": "Abutilon theophrasti", "value": "0 (Herbicidal ratio of 5% or lower (almost no effect))"},
      {"measurement": "N: Amaranthus retroflexus, herbicidal effect grade", "setting": "Amaranthus retroflexus", "value": "0 (Herbicidal ratio of 5% or lower (almost no effect))"},
      {"measurement": "P: Stellaria media, herbicidal effect grade", "setting": "Stellaria media", "value": "0 (Herbicidal ratio of 5% or lower (almost no effect))"},
      {"measurement": "Q: Galium spurium, herbicidal effect grade", "setting": "Galium spurium", "value": "0 (Herbicidal ratio of 5% or lower (almost no effect))"},
      {"measurement": "R: Veronica persica, herbicidal effect grade", "setting": "Veronica persica [7]", "value": "0 (Herbicidal ratio of 5% or lower (almost no effect))"},
      {"measurement": "b: directly sowed rice plant, effect on crop grade", "setting": "rice plant", "value": "3 (Herbicidal ratio of 40% or higher and lower than 70%)"}
    ]}
  ]
}
